US20060100431A1, “Biologically active compounds” (Amura Therapeutics Limited, priority 2002, published 2006)

Experiments:
Assay type in all cases: biochemical
Wild-type cruzipain = Wild-type cruzipain (Trypanosoma cruzi, UniProt P25779); experiment: Trypanosoma cruzi cruzipain peptidase activity assay (Ki); conditions: read-out: Ki, inhibitors of cruzain and cruzipains
Summary of the method: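 Native cruzipain from T. cruzi Dm28 epimastigotes, 2.5 nM, in 100 mM sodium phosphate pH 6.75 with 1 mM EDTA and 10 mM L-cysteine, 25 °C, DMSO <1%. Rates taken from continuous fluorogenic substrate read; Ki by regression assuming reversible pure-competitive inhibition.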

human cathepsin B = target: T1, human cathepsin B (Homo sapiens, UniProt P07858); experiment: Cathepsin B peptidase activity assay (Ki); conditions: read-out: Ki, inhibitors of cathepsin B
T1 construct: purchased CN Biosciences
Protocol: Unless otherwise stated, all general chemicals and biochemicals were purchased from either the Sigma Chemical Company, Poole, Dorset, U.K or from Fisher Scientific UK, Loughborough, Leicestershire, U.K. Absorbance assays were carried out in flat-bottomed 96-well plates (Spectra; Greiner Bio-One Ltd., Stonehouse, Gloucestershire, U.K.) using a SpectraMax PLUS384 plate reader (Molecular Devices, Crawley, U.K.). […] Fluorescence assays were monitored using a SpectraMax Gemini fluorescence plate reader (Molecular Devices). For substrates employing either a 7-amino-4-methylcoumarin (AMC) or a 7-amino-4-trifluoromethylcoumarin (AFC) fluorophore, assays were monitored at an excitation wavelength of 365 nm and an emission wavelength of 450 nm and the fluorescence plate reader calibrated with AMC. For substrates employing a 3-amino-benzoyl (Abz) fluorophore, assays were monitored at an excitation wavelength of 310 nm and an emission wavelength of 445 nm; the fluorescence plate reader calibrated with 3-amino-benzamide (Fluka). Unless otherwise indicated, all the peptidase substrates were purchased from Bachem UK, St Helens, Merseyside, UK. […] Hydroxyethylpiperazine ethanesulfonate (HEPES), tris-hydroxylmethyl aminomethane (tris) base, bis-tris-propane and all the biological detergents (e.g. CHAPS, zwittergents, etc.) were purchased from CN Biosciences UK, Beeston, Nottinghamshire, U.K. Glycerol was purchased from Amersham Pharmacia Biotech, Little Chalfont, Buckinghamshire, U.K. Stock solutions of substrate or inhibitor were made up to 10 mM in 100% dimethylsulfoxide (DMSO) (Rathburns, Glasgow, U.K.) and diluted as appropriately required. In all cases the DMSO concentration in the assays was maintained at less than 1% (vol./vol.).
Enzyme was added as required to initiate the reaction and the activity, as judged by the change in fluorescence upon conversion of substrate to product, was monitored over time. All assays were carried out at 25±1° C.
Bovine cathepsin S, human cathepsin L, human cathepsin H and human cathepsin B were obtained from CN Biosciences. Recombinant human cathepsin S, human cathepsin K and human cathepsin X were obtained from Dr. Boris Turk (Josef Stefan Institute, Ljubljana, Slovenia). Unless otherwise stated, all peptidase activity assays were carried out in 10 mM bis-tris-propane (BTP), pH 6.5 containing 1 mM EDTA, 5 mM 2-mercaptoethanol and 1 mM CaCl2.
The apparent inhibition constant (Ki) for each compound was determined on the basis that inhibition was reversible and occurred by a pure-competitive mechanism. […] [formula]
[formula] Ki^app=Ki(1+[So]/KM^app) (4)
Curves were fitted by non-linear regression analysis (Prism) using a fixed value for the enzyme concentration.

CPB2.8ΔCTE = target: T2, CPB2.8ΔCTE (Leishmania mexicana, UniProt P36400); experiment: Leishmania mexicana cysteine protease B (CPB) peptidase activity assay (Ki); conditions: Ki, inhibitors of Leismania mexicana CPB protease
T2 construct: Wild-type recombinant CPB without the C-terminal extention (i.e. CPB2.8ΔCTE); Dr. Jeremy Mottram (Wellcome Centre for Molecular Parasitology, University of Glasgow)
T2 sequence (P36400 126-343, stated change not applied): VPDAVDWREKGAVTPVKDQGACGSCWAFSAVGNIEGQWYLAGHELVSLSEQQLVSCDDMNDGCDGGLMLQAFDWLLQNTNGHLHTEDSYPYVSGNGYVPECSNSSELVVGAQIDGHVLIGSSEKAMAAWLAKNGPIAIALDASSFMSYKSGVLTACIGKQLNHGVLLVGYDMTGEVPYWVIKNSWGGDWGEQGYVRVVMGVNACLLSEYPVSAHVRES
Summary of the method: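 Recombinant CPB2.8ΔCTE (0.25 nM) was assayed in 100 mM sodium acetate pH 5.5 with 1 mM EDTA, 200 mM NaCl and 10 mM DTT at 25 °C, DMSO <1%, enzyme added to start. Rates were taken from continuous fluorescence slopes; apparent Ki was fitted assuming reversible, pure-competitive inhibition.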

Sequence of Wild-type cruzipain (P25779 whole entry): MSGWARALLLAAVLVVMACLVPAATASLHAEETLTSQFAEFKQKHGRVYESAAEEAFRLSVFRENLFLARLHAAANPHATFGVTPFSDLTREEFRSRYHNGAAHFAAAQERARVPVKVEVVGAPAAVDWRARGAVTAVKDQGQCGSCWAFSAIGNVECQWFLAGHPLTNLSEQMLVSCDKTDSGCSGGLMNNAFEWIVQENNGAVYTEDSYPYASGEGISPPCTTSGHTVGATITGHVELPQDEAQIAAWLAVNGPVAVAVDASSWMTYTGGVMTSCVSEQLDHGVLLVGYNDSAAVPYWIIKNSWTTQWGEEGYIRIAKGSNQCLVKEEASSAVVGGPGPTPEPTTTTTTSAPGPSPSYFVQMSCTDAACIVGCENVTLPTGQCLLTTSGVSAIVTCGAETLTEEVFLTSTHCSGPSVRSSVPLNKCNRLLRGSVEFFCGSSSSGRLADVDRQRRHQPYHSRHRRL

What does the source list for Cc1cccc(C(=O)N2CC(=O)[C@@H]3[C@H]2CCN3C(=O)[C@H](CC(C)C)NC(=O)c2ccc(N(C)C)cc2)c1 [Example 54, (3aR,6aS)-4-Dimethylamino-N-{(1S)-3-methyl-1-[4-(3-methyl-benzoyl)-6-oxo-hexahydro-pyrrolo[3,2-b]pyrrole-1-carbonyl]-butyl}-benzamide]?
Ki (Wild-type cruzipain): < 5 µM; Ki (human cathepsin B): < 5 µM

O=C(N[C@@H](Cc1ccc(O)cc1)C(=O)N1CC[C@@H]2[C@H]1C(=O)CN2C(=O)C1CCCCC1)c1cccc(Br)c1 [Example 325, (3aR,6aS)-3-Bromo-N-[(1S)-2-(4-cyclohexanecarbonyl-6-oxo-hexahydro-pyrrolo[3,2-b]pyrrole-1-yl)-1-(4-hydroxy-benzyl)-2-oxo-ethyl]-benzamide] was tested. Which Ki (Wild-type cruzipain) did it give?
Its Ki is less than 5 µM.

And the Ki (human cathepsin B)?
The Ki was less than 5 µM.

Which Ki (human cathepsin B) does the source give for O=C(N[C@@H](CSCc1ccccc1)C(=O)N1CC[C@@H]2[C@H]1C(=O)CN2C(=O)c1ccccc1)c1csc2ccccc12 [Example 253, (3aR,6aS)-Benzo[b]thiophene-3-carboxylic acid [(1R)-2-(4-benzoyl-6-oxo-hexahydro-pyrrolo[3,2-b]pyrrole-1-yl)-1-benzylsulfanylmethyl-2-oxo-ethyl]-amide] here?
Its Ki is less than 5 µM.

How did the Ki (human cathepsin B) turn out when O=C(N[C@@H](CSCc1ccccc1)C(=O)N1CC[C@@H]2[C@H]1C(=O)CN2C(=O)c1ccc(O)cc1)c1ccsc1 [Example 267, (3aR,6aS)-Thiophene-3-carboxylic acid {(1R)-1-benzylsulfanylmethyl-2-[4-(4-hydroxy-benzoyl)-6-oxo-hexahydro-pyrrolo[3,2-b]pyrrol-1-yl]-2-oxo-ethyl}-amide] was run?
Its Ki is less than 5 µM.

Which Ki (human cathepsin B) does the source give for O=C(N[C@@H](CSCc1ccccc1)C(=O)N1CC[C@@H]2[C@H]1C(=O)CN2C(=O)c1cccc([N+](=O)[O-])c1)c1ccsc1 [Example 264, (3aR,6aS)-Thiophene-3-carboxylic acid {(1R)-1-benzylsulfanylmethyl-2-[4-(3-nitro-benzoyl)-6-oxo-hexahydro-pyrrolo[3,2-b]pyrrole-1-yl]-2-oxo-ethyl}-amide] here?
Its Ki is less than 5 µM.

Which results are given for CS(=O)(=O)c1cccc(C(=O)N2CC(=O)[C@@H]3[C@H]2CCN3C(=O)[C@H](Cc2ccc(O)cc2)NC(=O)c2cccc(Br)c2)c1 [Example 304, (3aR,6aS)-3-Bromo-N-{(1S)-1-(4-hydroxy-benzyl)-2-[4-(3-methanesulfonyl-benzoyl)-6-oxo-hexahydro-pyrrolo[3,2-b]pyrrole-1-yl]-2-oxo-ethyl}-benzamide]?
Ki (Wild-type cruzipain): < 5 µM; Ki (human cathepsin B): < 5 µM

How did the Ki (Wild-type cruzipain) turn out when O=C(N[C@@H](Cc1ccc(O)cc1)C(=O)N1CC[C@@H]2[C@H]1C(=O)CN2C(=O)C12CC3CC(CC(C3)C1)C2)c1cccc(Br)c1 [Example 307, (3aR,6aS)-N-[(1S)-2-[4-(Adamantane-1-carbonyl)-6-oxo-hexa hydro-pyrrolo[3,2-b]pyrrole-1-yl)-1-(4-hydroxy-benzyl)-2-oxo-ethyl]-3-bromo-benzamide] was run?
Its Ki is less than 5 µM.

What about the Ki (human cathepsin B) of the same compound?
The Ki was less than 5 µM.

How did the Ki (Wild-type cruzipain) turn out when O=C(N[C@@H](Cc1ccc(O)cc1)C(=O)N1CC[C@@H]2[C@H]1C(=O)CN2C(=O)C12CC3CC(CC1C3)C2)c1cccc(Br)c1 [Example 308, (3aR,6aS)-3-Bromo-N-[(1S)-2-[4-(hexahydro-2,5-methano-pentalene-3a-carbonyl)-6-oxo-hexahydro-pyrrolo[3,2-b]pyrrole-1-yl]-1-(4-hydroxy-benzyl)-2-oxo-ethyl]-benzamide] was run?
Its Ki is less than 5 µM.

What about the Ki (human cathepsin B) of the same compound?
The Ki was less than 5 µM.

O=C(N[C@@H](Cc1ccc(O)cc1)C(=O)N1CC[C@@H]2[C@H]1C(=O)CN2C(=O)c1cccc2ccccc12)c1cccc2ccccc12 [Example 301, (3aR,6aS)-Naphthalene-1-carboxylic acid {(1S)-1-(4-hydroxy-benzyl)-2-[4-(naphthalene-1-carbonyl)-6-oxo-hexahydro-pyrrolo[3,2-b]pyrrol-1-yl]-2-oxo-ethyl}-amide] was tested. Which Ki (Wild-type cruzipain) did it give?
The Ki was less than 5 µM.

And the Ki (human cathepsin B)?
Its Ki is less than 5 µM.

For O=C(N[C@@H](Cc1ccc(O)cc1)C(=O)N1CC[C@@H]2[C@H]1C(=O)CN2C(=O)c1ccccc1)c1nccc2ccccc12 [Example 299, (3aR,6aS)-Isoquinoline-1-carboxylic acid [(1S)-2-(4-benzoyl-6-oxo-hexahydro-pyrrolo[3,2-b]pyrrol-1-yl)-1-(4-hydroxy-benzyl)-2-oxo-ethyl]-amide], which Ki (Wild-type cruzipain) is on record?
The Ki was less than 5 µM.

What about the Ki (human cathepsin B) of the same compound?
Its Ki is less than 5 µM.

For O=C(N[C@@H](CSCc1ccccc1)C(=O)N1CC[C@@H]2[C@H]1C(=O)CN2C(=O)C12CC3CC(CC1C3)C2)c1ccsc1 [Example 266, (3aR,6aS)-Thiophene-3-carboxylic acid {(1R)-1-benzylsulfanylmethyl-2-[4-(hexahydro-2,5-methano-pentalene-3a-carbonyl)-6-oxo-hexahydro-pyrrolo[3,2-b]pyrrole-1-yl]-2-oxo-ethyl}-amide], which Ki (human cathepsin B) is on record?
The Ki was less than 5 µM.

Which Ki (CPB2.8ΔCTE) does the source give for CC(C)C[C@H](NC(=O)c1ccc(N(C)C)cc1)C(=O)N1CC[C@@H]2[C@H]1C(=O)CN2C(=O)c1ccc(F)cc1 [Example 57, (3aR,6aS)-4-Dimethylamino-N-{(1S)-1-[4-(4-fluoro-benzoyl)-6-oxo-hexahydro-pyrrolo[3,2-b]pyrrole-1-carbonyl]-3-methyl-butyl}-benzamide] here?
The Ki was less than 5 µM.

And the Ki (human cathepsin B)?
The Ki was less than 5 µM.

For O=C(N[C@@H](Cc1ccc(O)cc1)C(=O)N1CC[C@@H]2[C@H]1C(=O)CN2C(=O)c1cccc([N+](=O)[O-])c1)c1cccc(Br)c1 [Example 305, (3aR,6aS)-3-Bromo-N-{(1S)-1-(4-hydroxy-benzyl)-2-[4-(3-nitro-benzoyl)-6-oxo-hexahydro-pyrrolo[3,2-b]pyrrole-1-yl]-2-oxo-ethyl}-benzamide], which Ki (Wild-type cruzipain) is on record?
The Ki was less than 5 µM.

And the Ki (human cathepsin B)?
The Ki was less than 5 µM.

Cc1cccc(C(=O)N2CC(=O)[C@@H]3[C@H]2CCN3C(=O)[C@H](Cc2ccc(O)cc2)NC(=O)c2cccc(Br)c2)c1 [Example 327, (3aR,6aS)-3-Bromo-N-{(1S)-1-(4-hydroxy-benzyl)-2-[4-(3-methyl-benzoyl)-6-oxo-hexahydro-pyrrolo[3,2-b]pyrrol-1-yl]-2-oxo-ethyl}-benzamide] was tested. Which Ki (Wild-type cruzipain) did it give?
The Ki was less than 5 µM.

What about the Ki (human cathepsin B) of the same compound?
Its Ki is less than 5 µM.

For O=C(N[C@@H](Cc1ccc(O)cc1)C(=O)N1CC[C@@H]2[C@H]1C(=O)CN2C(=O)c1ccc(O)cc1)c1cccc(Br)c1 [Example 309, (3aR,6aS)-3-Bromo-N-[(1S)-2-[4-(4-hydroxy-benzoyl)-6-oxo-hexa hydro-pyrrolo[3,2-b]pyrrole-1-yl]-1-(4-hydroxy-benzyl)-2-oxo-ethyl]-benzamide], which Ki (Wild-type cruzipain) is on record?
The Ki was less than 5 µM.

And the Ki (human cathepsin B)?
Its Ki is less than 5 µM.

What does the source list for O=C(N[C@@H](Cc1ccc(O)cc1)C(=O)N1CC[C@@H]2[C@H]1C(=O)CN2C(=O)c1ccccc1)c1cc2ccccc2s1 [Example 300, (3aR,6aS)-Benzo[b]thiophene-2-carboxylic acid [(1S)-2-(4-benzoyl-6-oxo-hexahydro-pyrrolo[3,2-b]pyrrole-1-yl)-1-(4-hydroxy-benzyl)-2-oxo-ethyl]-amide]?
Ki (Wild-type cruzipain): < 5 µM; Ki (human cathepsin B): < 5 µM

Which results are given for CC(C)C[C@H](NC(=O)c1ccc([N+](=O)[O-])cc1)C(=O)N1CC[C@@H]2[C@H]1C(=O)CN2C(=O)c1cccc(S(C)(=O)=O)c1 [Example 58, (3aR,6aS)-N-{(1S)-1-[4-(3-Methanesulfonyl-benzoyl)-6-oxo-hexahydro-pyrrolo[3,2-b]pyrrole-1-carbonyl]-3-methyl-butyl}-4-nitro-benzamide]?
Ki (Wild-type cruzipain): < 5 µM; Ki (human cathepsin B): < 5 µM

For O=C(N[C@@H](CSCc1ccccc1)C(=O)N1CC[C@@H]2[C@H]1C(=O)CN2C(=O)c1ccccc1)c1cc2ccccc2s1 [Example 252, (3aR,6aS)-Benzo[b]thiophene-2-carboxylic acid [(1R)-2-(4-benzoyl-6-oxo-hexahydro-pyrrolo[3,2-b]pyrrol-1-yl)-1-benzylsulfanylmethyl-2-oxo-ethyl]-amide], which Ki (human cathepsin B) is on record?
Its Ki is less than 5 µM.
